The values that follow come from patent US10435399B2, “HDAC6 inhibitory heterocyclic compound” (TAKEDA PHARMACEUTICAL COMPANY LIMITED, priority 2017, dated 2019).

Structures are written as SMILES.

In one experiment the target is T1, HDAC6 enzyme (Homo sapiens, UniProt Q9UBN7).
T1 construct: transducing full length HDAC6 gene into Sf-9 insect cells; GST; purchased SignalChem; host or cells: Sf-9 insect cells
T1 sequence (Q9UBN7 1-1215): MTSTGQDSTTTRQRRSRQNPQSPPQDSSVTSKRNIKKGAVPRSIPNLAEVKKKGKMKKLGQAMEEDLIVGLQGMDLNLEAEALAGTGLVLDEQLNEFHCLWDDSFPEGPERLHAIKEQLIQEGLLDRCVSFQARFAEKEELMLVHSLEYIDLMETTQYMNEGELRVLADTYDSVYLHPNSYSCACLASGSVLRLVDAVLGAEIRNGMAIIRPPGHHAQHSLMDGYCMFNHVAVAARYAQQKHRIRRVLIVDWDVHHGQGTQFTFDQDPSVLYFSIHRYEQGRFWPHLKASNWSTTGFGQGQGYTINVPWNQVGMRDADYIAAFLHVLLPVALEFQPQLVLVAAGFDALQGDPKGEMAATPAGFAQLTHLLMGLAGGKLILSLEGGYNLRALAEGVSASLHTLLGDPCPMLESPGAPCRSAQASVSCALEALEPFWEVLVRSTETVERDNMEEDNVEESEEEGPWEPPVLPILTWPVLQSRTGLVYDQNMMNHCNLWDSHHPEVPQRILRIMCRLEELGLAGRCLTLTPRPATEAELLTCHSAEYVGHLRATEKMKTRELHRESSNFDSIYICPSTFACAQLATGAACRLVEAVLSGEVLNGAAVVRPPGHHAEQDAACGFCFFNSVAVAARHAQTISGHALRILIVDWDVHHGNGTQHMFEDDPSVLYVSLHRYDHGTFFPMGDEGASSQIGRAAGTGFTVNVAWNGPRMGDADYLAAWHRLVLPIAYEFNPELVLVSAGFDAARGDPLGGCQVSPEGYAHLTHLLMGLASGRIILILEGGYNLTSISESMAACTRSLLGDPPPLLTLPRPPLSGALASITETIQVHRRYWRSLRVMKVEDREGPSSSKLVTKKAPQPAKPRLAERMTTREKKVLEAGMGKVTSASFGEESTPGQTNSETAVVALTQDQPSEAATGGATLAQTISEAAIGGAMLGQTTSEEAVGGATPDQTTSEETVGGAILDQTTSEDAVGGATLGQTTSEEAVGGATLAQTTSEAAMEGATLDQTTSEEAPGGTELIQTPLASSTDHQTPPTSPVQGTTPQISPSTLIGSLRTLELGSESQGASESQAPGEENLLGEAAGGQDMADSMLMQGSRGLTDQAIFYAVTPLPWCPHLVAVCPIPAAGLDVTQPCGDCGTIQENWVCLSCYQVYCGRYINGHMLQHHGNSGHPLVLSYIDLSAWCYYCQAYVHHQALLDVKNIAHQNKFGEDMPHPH
The experiment is described as follows: HDAC6 enzyme inhibitory activity (HDAC-Glo I/II Assay kit). The experiment is classed as biochemical. The following applies: 10 μM; wells without enzyme = 100% inhibition; read-out: HDAC6 inhibitory rate (%) (10 μM). Summed up: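 Luminescence read-out after 20 min reaction with HDAC-Glo substrate-developer, following 60 min room-temperature preincubation of compound with Sf-9-expressed, GST-purified full-length enzyme. Inhibition is relative to no-enzyme wells set as 100%.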
For `O=C(N[C@H]1[C@H](N2Cc3ccc(-c4nnc(C(F)F)o4)cc3C2=O)CCCC1(F)F)OCc1ccccc1` [Example 510, benzyl ((1S,6R)-6-(6-(5-(difluoromethyl)-1,3,4-oxadiazol-2-yl)-1-oxo-1,3-dihydro-2H-isoindol-2-yl)-2,2-difluorocyclohexyl)carbamate], the inhibition at 10 µM is 100%.

For the compound `N[C@H]1[C@H](N2Cc3ccc(-c4nnc(C(F)F)o4)cc3C2=O)CCCC1(F)F` [Example 511, 2-((1R,2S)-2-amino-3,3-difluorocyclohexyl)-6-(5-(difluoromethyl)-1,3,4-oxadiazol-2-yl)isoindolin-1-one], the inhibition at 10 µM is 95%. For the compound `O=C1c2cc(-c3nnc(C(F)F)o3)ccc2CN1[C@@H]1CCCC(F)(F)[C@H]1NC(=O)C(F)(F)C(F)(F)F` [Example 513, N-((1S,6R)-6-(6-(5-(difluoromethyl)-1,3,4-oxadiazol-2-yl)-1-oxo-1,3-dihydro-2H-isoindol-2-yl)-2,2-difluorocyclohexyl)-2,2,3,3,3-pentafluoropropanamide], the inhibition at 10 µM is 99%.

Turning to `O=C1c2cc(-c3nnc(C(F)F)o3)ccc2CN1[C@@H]1CCC(F)(F)C[C@@H]1NC(=O)C(F)(F)C(F)(F)F` [Example 515, N-((1S,2R)-2-(6-(5-(difluoro-methyl)-1,3,4-oxadiazol-2-yl)-1-oxo-1,3-dihydro-2H-isoindol-2-yl)-5,5-difluoro-cyclohexyl)-2,2,3,3,3-pentafluoro-propanamide], the inhibition at 10 µM came out at 99%. Take `CC(F)(F)C(=O)N[C@H]1CC(F)(F)CC[C@H]1N1Cc2ccc(-c3nnc(C(F)F)o3)cc2C1=O` [Example 516, N-((1S,2R)-2-(6-(5-(difluoromethyl)-1,3,4-oxadiazol-2-yl)-1-oxo-1,3-dihydro-2H-isoindol-2-yl)-5,5-difluorocyclohexyl)-2,2-difluoropropanamide]: the inhibition at 10 µM turned out to be 100%. For `Cn1cc(C2=CCN(C(=O)OC(C)(C)C)CC2)c(N2Cc3ccc(-c4nnc(C(F)F)o4)cc3C2=O)n1` [Example 518, tert-butyl 4-(3-(6-(5-(difluoro-methyl)-1,3,4-oxadiazol-2-yl)-1-oxo-1,3-dihydro-2H-isoindol-2-yl)-1-methyl-1H-pyrazol-4-yl)-3,6-dihydro-pyridine-1(2H)-carboxylate], the inhibition at 10 µM amounted to 99%.

Take `Cn1cc(C2=CCC(NC(=O)OC(C)(C)C)CC2)c(N2Cc3ccc(-c4nnc(C(F)F)o4)cc3C2=O)n1` (stereo not drawn) [Example 519, tert-butyl (4-(3-(6-(5-(difluoromethyl)-1,3,4-oxadiazol-2-yl)-1-oxo-1,3-dihydro-2H-isoindol-2-yl)-1-methyl-1H-pyrazol-4-yl)cyclohex-3-en-1-yl)carbamate]: the inhibition at 10 µM is 99%.

On to `CC(C)(C)OC(=O)NC1CC=C(c2cc(F)ccc2N2Cc3ccc(-c4nnc(C(F)F)o4)cc3C2=O)CC1` (stereo not drawn) [Example 520, tert-butyl (4-(2-(6-(5-(difluoromethyl)-1,3,4-oxadiazol-2-yl)-1-oxo-1,3-dihydro-2H-isoindol-2-yl)-5-fluorophenyl)cyclohex-3-en-1-yl)carbamate], for which the inhibition at 10 µM is 99%.

For the compound `O=C1c2cc(-c3nnc(C(F)F)o3)ccc2CN1[C@@H]1CCCC[C@H]1Nc1ccccn1` [Example 521, 6-(5-(difluoromethyl)-1,3,4-oxadiazol-2-yl)-2-((1R,2R)-2-(pyridin-2-ylamino)cyclohexyl)isoindolin-1-one], the inhibition at 10 µM turned out to be 99%. On the same count and under the same terms, then `Cn1cc(C2CCN(C(=O)OC(C)(C)C)CC2)c(N2Cc3ccc(-c4nnc(C(F)F)o4)cc3C2=O)n1` [Example 522, tert-butyl 4-(3-(6-(5-(difluoromethyl)-1,3,4-oxadiazol-2-yl)-1-oxo-1,3-dihydro-2H-isoindol-2-yl)-1-methyl-1H-pyrazol-4-yl)piperidine-1-carboxylate], with 99%; and `Cn1cc(C2CCC(NC(=O)OC(C)(C)C)CC2)c(N2Cc3ccc(-c4nnc(C(F)F)o4)cc3C2=O)n1` (stereo not drawn) [Example 523, tert-butyl (4-(3-(6-(5-(difluoromethyl)-1,3,4-oxadiazol-2-yl)-1-oxo-1,3-dihydro-2H-isoindol-2-yl)-1-methyl-1H-pyrazol-4-yl)cyclohexyl)carbamate], with 99%.

In the case of `CC(C)(C)OC(=O)N1CCC(c2cc(F)ccc2N2Cc3ccc(-c4nnc(C(F)F)o4)cc3C2=O)CC1` [Example 524, tert-butyl 4-(2-(6-(5-(difluoromethyl)-1,3,4-oxadiazol-2-yl)-1-oxo-1,3-dihydro-2H-isoindol-2-yl)-5-flluorophenyl)piperidine-1-carboxylate], the inhibition at 10 µM stood at 99%. In the case of `CC(C)(C)OC(=O)NC1CCC(c2cc(F)ccc2N2Cc3ccc(-c4nnc(C(F)F)o4)cc3C2=O)CC1` (stereo not drawn) [Example 525, tert-butyl (4-(2-(6-(5-(difluoromethyl)-1,3,4-oxadiazol-2-yl)-1-oxo-1,3-dihydro-2H-isoindol-2-yl)-5-fluorophenyl)cyclohexyl)carbamate], the inhibition at 10 µM was found to be 100%. As to `O=C1c2cc(-c3nnc(C(F)F)o3)ccc2CN1N1CCC(F)(F)CC1c1ccccc1` (stereo not drawn) [Example 530, 6-(5-(difluoromethyl)-1,3,4-oxadiazol-2-yl)-2-(4,4-difluoro-2-phenylpiperidin-1-yl)isoindolin-1-one], the inhibition at 10 µM came out at 100%. On to `Cn1cc(C2CCC(NC(=O)C(F)(F)C(F)(F)F)CC2)c(N2Cc3ccc(-c4nnc(C(F)F)o4)cc3C2=O)n1` (stereo not drawn) [Example 532, N-(4-(3-(6-(5-(difluoromethyl)-1,3,4-oxadiazol-2-yl)-1-oxo-1,3-dihydro-2H-isoindol-2-yl)-1-methyl-1H-pyrazol-4-yl)cyclohexyl)-2,2,3,3,3-pentafluoropropanamide], for which the inhibition at 10 µM turned out to be 99%.

For the compound `O=C1c2cc(-c3nnc(C(F)F)o3)ccc2CN1c1ccc(F)cc1C1CCN(C(=O)C(F)(F)C(F)(F)F)CC1` [Example 533, 6-(5-(difluoromethyl)-1,3,4-oxadiazol-2-yl)-2-(4-fluoro-2-(1-(2,2,3,3,3-pentafluoropropanoyl)piperidin-4-yl)phenyl)isoindolin-1-one], the inhibition at 10 µM stood at 98%. Take `O=C1c2cc(-c3nnc(C(F)F)o3)ccc2CN1c1ccc(F)cc1C1CCC(NC(=O)C(F)(F)C(F)(F)F)CC1` (stereo not drawn) [Example 534, N-(4-(2-(6-(5-(difluoromethyl)-1,3,4-oxadiazol-2-yl)-1-oxo-1,3-dihydro-2H-isoindol-2-yl)-5-fluorophenyl)cyclohexyl)-2,2,3,3,3-pentafluoropropanamide]: the inhibition at 10 µM is 100%. Turning to `O=C1c2cc(-c3nnc(C(F)F)o3)ccc2CN1[C@@H]1CCCC[C@H]1n1nnc2ccccc21` [Example 536, 2-((1R,2R)-2-(1H-benzotriazol-1-yl)cyclohexyl)-6-(5-(difluoromethyl)-1,3,4-oxadiazol-2-yl)isoindolin-1-one], the inhibition at 10 µM is 100%. For `O=C1c2cc(-c3nnc(C(F)F)o3)cnc2CN1[C@@H]1CCCC[C@H]1n1nnc2ccccc21` [Example 537, 6-((1R,2R)-2-(1H-benzotriazol-1-yl)cyclohexyl)-3-(5-(difluoromethyl)-1,3,4-oxadiazol-2-yl)-6,7-dihydro-5H-pyrrolo[3,4-b]pyridin-5-one], the inhibition at 10 µM came to 100%. Take `O=C1c2cc(-c3nnc(C(F)F)o3)ccc2CN1[C@@H]1CCCC[C@H]1c1nnc2ccccn12` [Example 547, 6-(5-(difluoromethyl)-1,3,4-oxadiazol-2-yl)-2-((1R,2R)-2-([1,2,4]triazolo[4,3-a]pyridin-3-yl)cyclohexyl)isoindolin-1-one]: the inhibition at 10 µM came out at 100%.

The same experiment, now with this note: read-out: HDAC6 inhibitory rate (%) (10 μM).
Consider `O=C1c2cc(-c3nnc(C(F)F)o3)ccc2CN1[C@@H]1CCCC[C@H]1N1CC(F)(F)C(F)(F)C(F)(F)C1` [Example 531, 6-(5-(difluoromethyl)-1,3,4-oxadiazol-2-yl)-2-((1R,2R)-2-(3,3,4,4,5,5-hexafluoropiperidin-1-yl)cyclohexyl)isoindolin-1-one], for which the inhibition at 10 µM was found to be 100%.
